Results: ChEMBL document CHEMBL4428102, “Discovery of an Orally Bioavailable Gonadotropin-Releasing Hormone Receptor Antagonist” (J Med Chem, 2016)

target: T1, Gonadotropin-releasing hormone receptor (Homo sapiens, UniProt P30968); test: Displacement of [125I]D-Trp6-LHRH from human GnRH receptor expressed in CHO-K1 cell membranes incubated for 1 hr by competitive binding assay; conditions: not given
T1 sequence (P30968 whole entry): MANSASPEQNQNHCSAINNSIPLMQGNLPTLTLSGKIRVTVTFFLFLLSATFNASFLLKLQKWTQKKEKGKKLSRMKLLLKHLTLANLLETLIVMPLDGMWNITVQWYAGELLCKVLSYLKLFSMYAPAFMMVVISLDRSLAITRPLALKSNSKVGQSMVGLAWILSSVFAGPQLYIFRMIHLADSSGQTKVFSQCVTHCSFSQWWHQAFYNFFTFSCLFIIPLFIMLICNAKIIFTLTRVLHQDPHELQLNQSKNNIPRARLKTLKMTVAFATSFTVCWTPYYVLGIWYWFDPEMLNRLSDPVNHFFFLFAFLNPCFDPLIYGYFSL

Point of comparison: Cc1c(N2CCN(Cc3ccc(C(F)(F)F)o3)CC2)c(=O)n(C[C@H](NCCCP(=O)(O)O)c2ccccc2)c(=O)n1Cc1c(F)cccc1C(F)(F)F, IC50 1.2 nM. Against it:
- CC(=O)c1cccc(CN2CCN(c3c(C)n(Cc4c(F)cccc4C(F)(F)F)c(=O)n(C[C@H](N)c4ccccc4)c3=O)CC2)c1 — 7.5-fold lower, 0.16 nM
- Cc1c(N2CCN(Cc3ccccc3F)CC2)c(=O)n(C[C@H](N)c2ccccc2)c(=O)n1Cc1c(F)cccc1C(F)(F)F — within 1.5-fold, 1 nM
- Cc1c(N2CCN(Cc3cncs3)CC2)c(=O)n(C[C@H](N)c2ccccc2)c(=O)n1Cc1c(F)cccc1C(F)(F)F — 7.5-fold higher, 8.94 nM
- Cc1c(N2CCN(Cc3ccc(Cl)nc3)CC2)c(=O)n(C[C@H](N)c2ccccc2)c(=O)n1Cc1c(F)cccc1C(F)(F)F — 3.1-fold higher, 3.77 nM
- Cc1c(N2CCN(Cc3ccon3)CC2)c(=O)n(C[C@H](N)c2ccccc2)c(=O)n1Cc1c(F)cccc1C(F)(F)F — 12-fold higher, 14.1 nM
- Cc1c(N2CCN(Cc3cccc([N+](=O)[O-])c3)CC2)c(=O)n(C[C@H](N)c2ccccc2O)c(=O)n1Cc1c(F)cccc1C(F)(F)F — 7.1-fold lower, 0.17 nM
- Cc1c(N2CCN(Cc3cccc([N+](=O)[O-])c3)CC2)c(=O)n(C[C@H](N)c2ccccc2)c(=O)n1Cc1c(F)cccc1F — 2.4-fold higher, 2.9 nM
- Cc1c(N2CCN(Cc3cccc(C(N)=O)c3)CC2)c(=O)n(C[C@H](N)c2ccccc2)c(=O)n1Cc1c(F)cccc1C(F)(F)F — 1.6-fold higher, 1.95 nM
- Cc1c(N2CCN(Cc3cccc4ccsc34)CC2)c(=O)n(C[C@H](N)c2ccccc2)c(=O)n1Cc1c(F)cccc1C(F)(F)F — 15-fold higher, 18.2 nM
- Cc1c(N2CCN(Cc3ccc(C#N)o3)CC2)c(=O)n(C[C@H](N)c2ccccc2)c(=O)n1Cc1c(F)cccc1C(F)(F)F — 7.1-fold lower, 0.17 nM
- Cc1c(N2CCN(Cc3cncc(F)c3)CC2)c(=O)n(C[C@H](N)c2ccccc2)c(=O)n1Cc1c(F)cccc1C(F)(F)F — 1.7-fold higher, 2 nM
- Cc1c(N2CCN(Cc3cccc(C(F)(F)F)c3)CC2)c(=O)n(C[C@H](N)c2ccccc2)c(=O)n1Cc1c(F)cccc1C(F)(F)F — lower, 0.33 to 0.52 nM
- Cc1cc(CN2CCN(c3c(C)n(Cc4c(F)cccc4C(F)(F)F)c(=O)n(C[C@H](N)c4ccccc4)c3=O)CC2)c(C(F)(F)F)o1 — higher, > 100 nM
- Cc1c(N2CCN(Cc3ccc(=O)[nH]c3)CC2)c(=O)n(C[C@H](N)c2ccccc2)c(=O)n1Cc1c(F)cccc1C(F)(F)F — 23-fold higher, 28.1 nM
- Cc1c(N2CCN(Cc3ccc(Cl)o3)CC2)c(=O)n(C[C@H](N)c2ccccc2)c(=O)n1Cc1c(F)cccc1C(F)(F)F — 3.1-fold lower, 0.39 nM
- Cc1c(N2CCN(Cc3nccs3)CC2)c(=O)n(C[C@H](N)c2ccccc2)c(=O)n1Cc1c(F)cccc1C(F)(F)F — 15-fold higher, 17.7 nM
- Cc1c(N2CCN(Cc3cccc(F)c3)CC2)c(=O)n(C[C@H](N)c2ccccc2)c(=O)n1Cc1c(F)cccc1C(F)(F)F — within 1.5-fold, 1.7 nM
- Cc1c(N2CCN(Cc3cccc(C(F)(F)F)c3)CC2)c(=O)n(C[C@H](NCCCC(=O)O)c2ccccc2)c(=O)n1Cc1c(F)cccc1C(F)(F)F — 1.8-fold lower, 0.68 nM
- Cc1c(N2CCN(Cc3cccc4nonc34)CC2)c(=O)n(C[C@H](N)c2ccccc2)c(=O)n1Cc1c(F)cccc1C(F)(F)F — 2-fold lower, 0.6 nM
- Cc1ncccc1CN1CCN(c2c(C)n(Cc3c(F)cccc3C(F)(F)F)c(=O)n(C[C@H](N)c3ccccc3)c2=O)CC1 — 4.3-fold higher, 5.11 nM
- Cc1c(N2CCN(Cc3cccc(F)c3F)CC2)c(=O)n(C[C@H](N)c2ccccc2)c(=O)n1Cc1c(F)cccc1C(F)(F)F — 3.1-fold lower, 0.39 nM
- Cc1c(N2CCN(Cc3cccc(C(=O)NCCCC(=O)O)c3)CC2)c(=O)n(C[C@H](N)c2ccccc2)c(=O)n1Cc1c(F)cccc1C(F)(F)F — within 1.5-fold, 1.1 nM
- Cc1c(N2CCN(Cc3cccc(S(C)(=O)=O)c3)CC2)c(=O)n(C[C@H](N)c2ccccc2)c(=O)n1Cc1c(F)cccc1C(F)(F)F — 3.2-fold lower, 0.38 nM
- Cc1c(N2CCN(Cc3ccc(C#N)cc3)CC2)c(=O)n(C[C@H](N)c2ccccc2)c(=O)n1Cc1c(F)cccc1C(F)(F)F — within 1.5-fold, 1.16 nM
- Cc1c(N2CCN(Cc3cccc(C(=O)NCCC(=O)O)c3)CC2)c(=O)n(C[C@H](N)c2ccccc2)c(=O)n1Cc1c(F)cccc1C(F)(F)F — the same, 1.2 nM
- Cc1c(N2CCN(Cc3cccc(C#N)c3)CC2)c(=O)n(C[C@H](N)c2ccccc2)c(=O)n1Cc1c(F)cccc1C(F)(F)F — 2.9-fold lower, 0.41 nM

target: T1, Gonadotropin-releasing hormone receptor; test: Antagonist activity against human GnRH receptor expressed in HEK293 cells co-transfected with pGL4-NFAT promoter AP1-luc assessed as inhibition of 20 nM GnRH-induced NFAT activation pre-incubated for 1 hr before GnRH stimulation and measured after 6 hrs by luciferase reporter gene assay; type: cell-based; conditions: not given

Point of comparison: Cc1c(N2CCN(Cc3cccc(C#N)c3)CC2)c(=O)n(C[C@H](N)c2ccccc2)c(=O)n1Cc1c(F)cccc1C(F)(F)F, IC50 213 nM. Against it:
- CC(=O)c1cccc(CN2CCN(c3c(C)n(Cc4c(F)cccc4C(F)(F)F)c(=O)n(C[C@H](N)c4ccccc4)c3=O)CC2)c1 — 13-fold lower, 16.5 nM
- Cc1c(N2CCN(Cc3ccccc3F)CC2)c(=O)n(C[C@H](N)c2ccccc2)c(=O)n1Cc1c(F)cccc1C(F)(F)F — 1.6-fold higher, 340 nM
- Cc1c(N2CCN(Cc3cncs3)CC2)c(=O)n(C[C@H](N)c2ccccc2)c(=O)n1Cc1c(F)cccc1C(F)(F)F — 4.4-fold higher, 930 nM
- Cc1c(N2CCN(Cc3ccc(Cl)nc3)CC2)c(=O)n(C[C@H](N)c2ccccc2)c(=O)n1Cc1c(F)cccc1C(F)(F)F — 2.6-fold higher, 554 nM
- Cc1c(N2CCN(Cc3ccon3)CC2)c(=O)n(C[C@H](N)c2ccccc2)c(=O)n1Cc1c(F)cccc1C(F)(F)F — higher, > 1000 nM
- Cc1c(N2CCN(Cc3cccc([N+](=O)[O-])c3)CC2)c(=O)n(C[C@H](N)c2ccccc2O)c(=O)n1Cc1c(F)cccc1C(F)(F)F — 2.4-fold lower, 89.3 nM
- Cc1c(N2CCN(Cc3cccc([N+](=O)[O-])c3)CC2)c(=O)n(C[C@H](N)c2ccccc2)c(=O)n1Cc1c(F)cccc1F — 1.9-fold higher, 401 nM
- Cc1c(N2CCN(Cc3cccc(C(N)=O)c3)CC2)c(=O)n(C[C@H](N)c2ccccc2)c(=O)n1Cc1c(F)cccc1C(F)(F)F — 2.5-fold lower, 86.5 nM
- Cc1c(N2CCN(Cc3cccc4ccsc34)CC2)c(=O)n(C[C@H](N)c2ccccc2)c(=O)n1Cc1c(F)cccc1C(F)(F)F — 48-fold higher, 10200 nM
- Cc1c(N2CCN(Cc3ccc(C(F)(F)F)o3)CC2)c(=O)n(C[C@H](NCCCP(=O)(O)O)c2ccccc2)c(=O)n1Cc1c(F)cccc1C(F)(F)F — 1.9-fold higher, 411 nM
- Cc1c(N2CCN(Cc3ccc(C#N)o3)CC2)c(=O)n(C[C@H](N)c2ccccc2)c(=O)n1Cc1c(F)cccc1C(F)(F)F — 2.1-fold lower, 103 nM
- Cc1c(N2CCN(Cc3cncc(F)c3)CC2)c(=O)n(C[C@H](N)c2ccccc2)c(=O)n1Cc1c(F)cccc1C(F)(F)F — 7.1-fold higher, 1510 nM
- Cc1c(N2CCN(Cc3cccc(C(F)(F)F)c3)CC2)c(=O)n(C[C@H](N)c2ccccc2)c(=O)n1Cc1c(F)cccc1C(F)(F)F — 7.6-fold lower, 27.9 nM
- Cc1cc(CN2CCN(c3c(C)n(Cc4c(F)cccc4C(F)(F)F)c(=O)n(C[C@H](N)c4ccccc4)c3=O)CC2)c(C(F)(F)F)o1 — higher, > 1000 nM
- Cc1c(N2CCN(Cc3ccc(=O)[nH]c3)CC2)c(=O)n(C[C@H](N)c2ccccc2)c(=O)n1Cc1c(F)cccc1C(F)(F)F — 5.1-fold higher, 1090 nM
- Cc1c(N2CCN(Cc3ccc(Cl)o3)CC2)c(=O)n(C[C@H](N)c2ccccc2)c(=O)n1Cc1c(F)cccc1C(F)(F)F — within 1.5-fold, 178 nM
- Cc1c(N2CCN(Cc3nccs3)CC2)c(=O)n(C[C@H](N)c2ccccc2)c(=O)n1Cc1c(F)cccc1C(F)(F)F — 7.8-fold higher, 1660 nM
- Cc1c(N2CCN(Cc3cccc(F)c3)CC2)c(=O)n(C[C@H](N)c2ccccc2)c(=O)n1Cc1c(F)cccc1C(F)(F)F — 1.5-fold higher, 321 nM
- Cc1c(N2CCN(Cc3cccc(C(F)(F)F)c3)CC2)c(=O)n(C[C@H](NCCCC(=O)O)c2ccccc2)c(=O)n1Cc1c(F)cccc1C(F)(F)F — 4.3-fold lower, 49.5 nM
- Cc1c(N2CCN(Cc3cccc4nonc34)CC2)c(=O)n(C[C@H](N)c2ccccc2)c(=O)n1Cc1c(F)cccc1C(F)(F)F — 4.2-fold higher, 885 nM
- Cc1ncccc1CN1CCN(c2c(C)n(Cc3c(F)cccc3C(F)(F)F)c(=O)n(C[C@H](N)c3ccccc3)c2=O)CC1 — 2.5-fold higher, 543 nM
- Cc1c(N2CCN(Cc3cccc(F)c3F)CC2)c(=O)n(C[C@H](N)c2ccccc2)c(=O)n1Cc1c(F)cccc1C(F)(F)F — within 1.5-fold, 266 nM
- Cc1c(N2CCN(Cc3cccc(C(=O)NCCCC(=O)O)c3)CC2)c(=O)n(C[C@H](N)c2ccccc2)c(=O)n1Cc1c(F)cccc1C(F)(F)F — 1.8-fold higher, 376 nM
- Cc1c(N2CCN(Cc3cccc(S(C)(=O)=O)c3)CC2)c(=O)n(C[C@H](N)c2ccccc2)c(=O)n1Cc1c(F)cccc1C(F)(F)F — within 1.5-fold, 214 nM
- Cc1c(N2CCN(Cc3ccc(C#N)cc3)CC2)c(=O)n(C[C@H](N)c2ccccc2)c(=O)n1Cc1c(F)cccc1C(F)(F)F — 1.5-fold higher, 326 nM
- Cc1c(N2CCN(Cc3cccc(C(=O)NCCC(=O)O)c3)CC2)c(=O)n(C[C@H](N)c2ccccc2)c(=O)n1Cc1c(F)cccc1C(F)(F)F — within 1.5-fold, 146 nM

target: CYP3A4 (Homo sapiens, UniProt P08684); test: Inhibition of human recombinant CYP3A4 expressed in baculosomes at 10 uM incubated for 30 mins using BOMR substrate by fluorescence based assay; type: ADME; conditions: probe BOMR
Sequence (P08684 whole entry): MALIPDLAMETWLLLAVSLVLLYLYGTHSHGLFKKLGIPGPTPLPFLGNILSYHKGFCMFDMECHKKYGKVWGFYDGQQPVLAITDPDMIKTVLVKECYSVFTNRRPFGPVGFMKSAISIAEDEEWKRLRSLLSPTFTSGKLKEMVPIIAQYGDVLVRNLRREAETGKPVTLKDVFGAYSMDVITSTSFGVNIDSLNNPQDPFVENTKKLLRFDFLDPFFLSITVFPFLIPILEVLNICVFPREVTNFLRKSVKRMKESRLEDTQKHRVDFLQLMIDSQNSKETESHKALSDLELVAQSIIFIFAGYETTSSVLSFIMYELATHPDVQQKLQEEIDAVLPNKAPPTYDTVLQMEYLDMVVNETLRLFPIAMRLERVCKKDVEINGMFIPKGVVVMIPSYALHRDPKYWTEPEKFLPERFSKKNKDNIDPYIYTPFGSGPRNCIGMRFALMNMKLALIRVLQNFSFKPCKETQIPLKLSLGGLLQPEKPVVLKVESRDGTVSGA

Point of comparison: Cc1c(N2CCN(Cc3cccc(C(=O)NCCCC(=O)O)c3)CC2)c(=O)n(C[C@H](N)c2ccccc2)c(=O)n1Cc1c(F)cccc1C(F)(F)F, inhibition at 0.5 h, 10 µM 66%. Against it:
- Cc1c(N2CCN(Cc3cccc([N+](=O)[O-])c3)CC2)c(=O)n(C[C@H](N)c2ccccc2O)c(=O)n1Cc1c(F)cccc1C(F)(F)F — higher, 97%
- Cc1c(N2CCN(Cc3cccc(C(N)=O)c3)CC2)c(=O)n(C[C@H](N)c2ccccc2)c(=O)n1Cc1c(F)cccc1C(F)(F)F — higher, 93%
- Cc1c(N2CCN(Cc3ccc(C(F)(F)F)o3)CC2)c(=O)n(C[C@H](NCCCP(=O)(O)O)c2ccccc2)c(=O)n1Cc1c(F)cccc1C(F)(F)F — lower, 16%
- Cc1c(N2CCN(Cc3cccc(C(F)(F)F)c3)CC2)c(=O)n(C[C@H](N)c2ccccc2)c(=O)n1Cc1c(F)cccc1C(F)(F)F — higher, 96%
- Cc1c(N2CCN(Cc3cccc(C(F)(F)F)c3)CC2)c(=O)n(C[C@H](NCCCC(=O)O)c2ccccc2)c(=O)n1Cc1c(F)cccc1C(F)(F)F — lower, 22%
- Cc1c(N2CCN(Cc3cccc(C(=O)NCCC(=O)O)c3)CC2)c(=O)n(C[C@H](N)c2ccccc2)c(=O)n1Cc1c(F)cccc1C(F)(F)F — higher, 72%
